# Measurements published in a melting point compilation (Tetko et al.).
row,Structure (SMILES),melting point [°C]
1,O=C(O)Cc1ccc(OCc2ccccn2)cc1,153 to 155
2,NCc1ccccc1CN1CCN(c2ccccc2)CC1,86 to 88
3,O=C(O)c1cccc(OCC2CCCO2)c1 (stereo not given),86 to 88
4,Cc1cccc(-n2c(C)cc(/C=C(\C#N)C(=O)O)c2C)c1,75 to 77
5,CC(C)(O)c1nc2ccccc2s1,89 to 91
6,COC(C)C(N)=S (stereo not given),58 to 60
7,O=S(=O)(CCN1CCNCC1)c1ccc(Br)cc1,99 to 101
8,CCOc1ccc2nc(-c3ccc(N)cc3)sc2c1,203 to 205
9,O=C(NNC(=O)C(Cl)Cl)c1ccccc1,184 to 186
10,Cc1ccc(-n2nc(C(C)C)cc2N)cc1,47 to 49
11,O=C(O)c1ccc(Oc2ccc(F)c(F)c2)cc1,156 to 158
12,O=C(O)c1cnc2ccccn2c1=O,251 to 253
13,CC(C)CS(=O)(=O)CC(=O)O,46 to 48
14,O=C(O)C1(c2ccc(Br)cc2)CCCCC1,179 to 181
15,Nc1nnn[nH]1,200 to 204
16,O=c1c2ccccc2ncn1CCCl,124 to 126
17,Cc1cc(C)nc(N)c1,63 to 64
18,N#CCc1ccc(Oc2ncccn2)cc1,70 to 72
19,CN1CCC(CC(=O)O)CC1,150 to 152
20,O=C(O)CCN1C(=O)C2C3CCC(O3)C2C1=O (stereo not given),185 to 187
21,O=c1[nH]cnc2c1cnn2-c1ccc(F)cc1,243 to 246
22,Cc1cc(C(=O)CCl)c(C)[nH]1,143 to 145

row,Structure (SMILES),melting point [°C]
1,O=[N+]([O-])c1ccc(CBr)c(F)c1,59 to 61
2,Nc1scnc1-c1ccccc1,130 to 132
3,CN(C)S(=O)(=O)c1ccc(S(=O)(=O)Cl)c([N+](=O)[O-])c1,153 to 155
4,CS(=O)(=O)OCC1CCOCC1,61 to 63
5,O=C(O)c1c[nH]cc1-c1ccc([N+](=O)[O-])cc1,209 to 211
6,COc1ccccc1SCC(=O)O,99 to 101
7,Cc1ccc(-n2c(S)nnc2-c2ccc(Cl)cc2)cc1,141 to 143
8,NC(=O)c1ccoc1,174 to 176
9,Cc1nc(-c2ccccn2)[nH]c(=O)c1CC(=O)O,209 to 211
10,CCOC(=O)c1c(CBr)oc2ccccc12,84 to 86
11,COc1cncc(CCC(=O)O)c1,102 to 104
12,COc1ccc(S(N)(=O)=O)cc1NC(=O)CCl,169 to 171
13,NNC(=O)c1ccc(NS(=O)(=O)c2cccc([N+](=O)[O-])c2)cc1,80 to 82
14,O=C(O)CCNC(=O)c1ccc2[nH]ncc2c1,240 to 242
15,NC(=S)NN=Cc1ccccc1Cl,210 to 212
16,Cn1nc(C=O)cc1-c1cccs1,76 to 78
17,N#CC1(O)CCOCC1,43 to 45
18,COc1ccc(NC(=O)CCl)cc1S(=O)(=O)N1CCCCC1,142 to 144
19,CC(C)c1nc(C#N)c(NN)o1,103 to 105
20,Nc1nc(CN2CCN(c3ncccn3)CC2)cs1,158 to 160
21,Cc1cccn2cc(-c3ccc(N)cc3)nc12,161 to 163
22,O=C(O)C1(c2cccc(Br)c2)CCCCC1,164 to 166

row,Structure (SMILES),melting point [°C]
1,CC(C)(C)Sc1ccc(N)cc1,67 to 69
2,Cc1cccc(S(N)(=O)=O)c1Cl,169 to 171
3,Cc1cc(C)c(N=C=S)c(Cl)c1,55 to 57
4,Cc1cc(Cl)cc([N+](=O)[O-])c1I,73 to 75
5,COC(=O)c1c(C)n(C2CC2)c2ccc(O)cc12,193 to 195
6,O=c1c(Br)c[nH]cc1[N+](=O)[O-],332 to 334
7,O=C(Nc1ccc(-n2cncn2)nc1)OCC(F)(F)F,192 to 194
8,Cc1[nH]cnc1CC#N,164 to 166
9,CC1(n2cc(C=O)cn2)CCS(=O)(=O)C1 (stereo not given),84 to 86
10,Cc1cccc2cc(C(=O)O)[nH]c12,169 to 175
11,Cc1ccsc1C1CC1C(=O)O (stereo not given),58 to 60
12,Cc1nn(C)c2c1NCC1CCCN21 (stereo not given),159 to 161
13,CC(=O)c1cnn(C)c1,51 to 53
14,COc1cccc(/C=C/c2cc(C(=O)O)c3cc(Br)ccc3n2)c1,285 to 287
15,O=C(O)c1cc(NS(=O)(=O)c2ccc(Cl)c([N+](=O)[O-])c2)ccc1O,239 to 241
16,CCNC(=O)OCC(F)(F)F,27 to 29
17,CNC1(CO)CCC(c2ccccc2)CC1 (stereo not given),127 to 129
18,Nc1ccnn1C1CCCCC1,80 to 82
19,Nc1ccccc1SCC(O)c1ccccc1 (stereo not given),61 to 63
20,CC(C)(C)OC(=O)N1CCOCC1C(=N)NO (stereo not given),154 to 156
21,COc1cccc(-n2cncn2)c1,95 to 97
22,Cc1ccccc1C(O)CN (stereo not given),88 to 90

row,Structure (SMILES),melting point [°C]
1,CS(=O)(=O)c1ccc(F)c(S(C)(=O)=O)c1,196 to 198
2,COC(=O)c1ccc(C(N)=S)cc1,189 to 191
3,COc1ccc(CCC(=O)O)c(OC)c1OC,73 to 75
4,O=[N+]([O-])c1ccc(C2NCCS2)cc1 (stereo not given),124 to 126
5,O=C(Cc1ccc(Cl)cc1Cl)c1ccc(F)cc1,108 to 110
6,NC(CN1CCC(O)CC1)=NO,182 to 184
7,Cc1cccc(-c2[nH]ncc2C=O)c1,55 to 57
8,C=CCNc1nnc(S)s1,133 to 135
9,CCN1CCN(c2ccc(C#N)cn2)CC1,69 to 71
10,Cc1nc(O)nc(C)c1Br,210 to 212
11,NCC(=O)N1CCN(c2ccc(Cl)cc2)CC1,87 to 89
12,Brc1ccn2nccc2n1,131 to 133
13,O=C(NC(CO)C(=O)O)c1cccc(Br)c1 (stereo not given),140 to 142
14,Nc1nnc(-c2ccc3ccccc3c2)o1,274 to 276
15,O=C(O)CSc1nnc(-c2ccc3ccccc3c2)o1,182 to 184
16,CC(CC(=O)O)NC(=O)OC(C)(C)C (stereo not given),94 to 96
17,COc1ccc(N)c(C(=O)NC2CC2)c1,137 to 139
18,NCCCN1CCC(C(N)=O)CC1,94 to 96
19,CC(C)(C)c1nn(-c2ccccc2)cc1C=O,57 to 59
20,O=C(CCl)NC(=O)NCCC1=CCCCC1,200 to 202
21,Nc1cc(C(=O)O)c(Br)cn1,276 to 278

# Now from value to molecule:
row,melting point [°C],Structure (SMILES)
1,71 to 73,ClCc1ccc(-c2ccccc2)cc1
2,109 to 111,COC(=O)c1ccnc(C#N)c1
3,270 to 272,O=C(O)CNS(=O)(=O)c1cccc2c1N=S=N2
4,128 to 130,CCS(=O)c1ccccc1C(=O)O (stereo not given)
5,127 to 129,O=C(O)C1CCN(C(=O)c2ccco2)CC1
6,203 to 205,CC(C)(C)c1nnn[nH]1
7,215 to 217,Cc1noc2nc(C3CC3)cc(C(=O)O)c12
8,73 to 75,O=C1CCOc2ccc(Br)cc21
9,110 to 112,CC(Cl)c1nc2cc(Cl)ccc2n1Cc1ccccc1 (stereo not given)
10,190 to 192,NN1C(=O)CNC1=O
11,112 to 114,Sc1ccc(Sc2ccc(S)cc2)cc1
12,149 to 151,CC(=O)c1csc(C(=O)O)c1
13,208 to 210,O=C(O)c1cc(C2CC2)nc2ccccc12
14,118 to 120,COCCNC(N)=S
15,138 to 140,O=C(O)C1(S(=O)(=O)c2ccc(Br)cc2)CCCC1
16,171 to 173,O=C(O)Cc1ccc(-n2cccc2)cc1
17,118 to 120,CCn1nnnc1-c1cccc(N)c1
18,156 to 158,O=S(=O)(Nc1ccc(O)cc1)c1ccccc1
19,122 to 124,CC(=CC(=O)O)c1ccc(C(F)(F)F)cc1
20,160 to 162,Cc1cc(C(=O)CCl)c(C)n1-c1c(C)n(C)n(-c2ccccc2)c1=O

row,melting point [°C],Structure (SMILES)
1,89 to 91,COc1cc(Br)c(C=O)c(OC)c1
2,175 to 177,COc1ccccc1Nc1ncccc1C(=O)O
3,202 to 204,CC12CSCC(=O)N1C(C(=O)O)CS2 (stereo not given)
4,147 to 149,Cc1csc(N2CCCC(C(=O)O)C2)n1 (stereo not given)
5,79 to 81,COC(=O)c1ccc(C=O)o1
6,156 to 158,Nc1ncn(Cc2ccncc2)n1
7,185 to 187,Cc1sc2nc(Cn3cnc([N+](=O)[O-])c3)nc(Cl)c2c1C
8,159 to 161,O=C(O)c1cn(-c2ccc(F)cc2)nn1
9,157 to 159,Nc1ccc(Cl)c(S(=O)(=O)N2CCOCC2)c1
10,162 to 166,O=C(O)c1cc2c(s1)CCCCC2
11,54 to 56,O=C(O)CCOC1CCOCC1
12,109 to 111,COc1cccc(-c2cc(N)n(-c3ccc(C)cc3)n2)c1
13,182 to 184,O=C(O)c1c(O)cc(F)cc1F
14,165 to 175,Fc1ccc(-n2c(S)nnc2-c2ccncc2)cc1
15,44 to 46,BrCc1cnn(-c2ccccc2)n1
16,172 to 174,CC(=O)NC(C(=O)O)C1CCCC1 (stereo not given)
17,152 to 154,O=C(CCl)Nc1cccc(C(=O)N2CCSCC2)c1
18,133 to 135,NS(=O)(=O)c1ccccc1OC(F)F
19,163 to 165,N#Cc1cc2ccccc2nc1Cl
20,94 to 96,Clc1ccc(CBr)c2ncccc12

row,melting point [°C],Structure (SMILES)
1,144 to 146,CN(C)c1nc(=NN)cc[nH]1
2,194 to 196,Cc1ccc(/C=C/C(=O)O)cc1Cl
3,126 to 128,CC(C)(C)OC(=O)NC1CCCC(C(=O)O)C1 (stereo not given)
4,100 to 102,CCC(C)(C)C1CCc2c(sc(NC(=O)CCl)c2C#N)C1 (stereo not given)
5,149 to 151,Nc1nc2ccccc2nc1N1CCCC1
6,168 to 170,NC(=O)C1CCCN(c2ccc(N)cn2)C1 (stereo not given)
7,146 to 148,O=C(O)COc1ccc(Br)cc1Cl
8,177 to 179,NC(=O)C1CCCCN1C(=O)c1cccc(Br)c1 (stereo not given)
9,77 to 79,O=C1CCCN1c1ccccc1[N+](=O)[O-]
10,108 to 110,CC(Cl)C(=O)Nc1cccc(C#N)c1 (stereo not given)
11,42 to 44,O=C(O)CCCc1cc(Cl)sc1Cl
12,145 to 147,NC(=O)c1c(N)sc2c1-c1ccccc1CCC2
13,82 to 84,CCN(CC)S(=O)(=O)c1ccc(Cl)nc1
14,104 to 106,O=C(CO)Nc1ccc(C(F)(F)F)cc1
15,146 to 148,Cc1cc(C(=O)NC2CCCC2)ccc1N
16,113 to 115,Cc1ccc2cccc(S(=O)(=O)Cl)c2n1
17,263 to 265,O=C(O)/C=C/c1ccc(S(=O)(=O)NC2CC2)cc1
18,272 to 274,Cc1nnc(-c2ccc(C(=O)O)cc2)[nH]1
